Results from US20240149033A1, “MICRONEEDLE COMPOSITIONS AND METHODS OF DELIVERY USING THE SAME” (The Brigham and Women`s Hospital, Inc., priority 2021, published 2024).

Tested on: THP-1 cells
Experiment: Cytotoxicity of TCEP digestion media (LIVE/DEAD stain, flow cytometry)
Format: cell-based
Settings: TCEP 0.1 mM to 100 mM, 10 minutes
Procedure: Cell death was analyzed by flow cytometry after staining using the LIVE/DEAD fixable Violet Dead Cell Stain. Multiple comparisons among groups were determined using one-way ANOVA followed by a post-hoc test. P-value: *p<0.05, **p<0.01.
The ability to induce on-demand digestion of the MNs using a reducing agent (Tris (2-carboxyethil) phosphine, TCEP) was also characterized. […] THP-1 cells were incubated with different concentrations of digestion media (TCEP solution in supplemented media), ranging from 0.1 mM to 100 mM, for 10 minutes. Thereafter, digestion media was removed, and cells were stained using the LIVE/DEAD fixable Violet Dead Cell Stain Kit (ThermoFisher Scientific, USA) following the manufacturer's guidelines. Dead cells were analyzed by flow cytometry using a BD LSRFortessa™ flow cytometer.

O=C(O)CCP(CCC(=O)O)CCC(=O)O [TCEP, tris(2-carboxyethyl)phosphine] was tested, and the cell viability was “did not affect cell viability”.
